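Compound exposure: 48 hours, 5 concentrations, 96-well plates. Abbreviation: GI50, concentration required for 50% inhibition of growth. TGI is the concentration that stops growth completely.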
Columns and labels:
Assay in all cases: NCI tumour cell line growth inhibition, 48 h
[1] = system: SR leukemia
[2] = system: HCC-2998 colon
[3] = system: SNB-19 CNS
[4] = system: M14 melanoma
[5] = system: NCI-H522 lung
[6] = system: MDA-N
[7] = system: MCF7 breast
[8] = system: HOP-92 NSCLC
[9] = system: BT-549 breast
[10] = system: SNB-75 CNS

Compound	TGI [1] [µM]	TGI [2] [µM]	TGI [3] [µM]	TGI [4] [µM]	TGI [5] [µM]	TGI [6] [µM]	TGI [7] [µM]	TGI [8] [µM]	TGI [9] [µM]	GI50 [1] [nM]	GI50 [2] [nM]	GI50 [3] [nM]	GI50 [10] [µM]	TGI [10] [µM]	GI50 [4] [nM]	GI50 [5] [nM]	GI50 [8] [nM]	GI50 [7] [nM]	GI50 [9] [nM]
CC1C(c2ccc3c(c2)OCO3)c2cc3c(cc2OC1N1CCCCC1)OCO3 (centres undefined)	> 100	> 100	> 100	> 100	> 100	48.6	> 100	–	–	–	–	–	–	–	–	–	–	–	–
COc1ccc(CCCC(=O)O)c(C)c1	> 100	–	> 100	> 100	> 100	> 100	–	90.8	> 100	–	–	–	–	–	–	–	–	–	–
COc1ccc(Cl)cc1NC(=O)c1c(NC(=O)C(F)(F)C(F)(F)F)sc2c1CCCCC2	> 100	> 100	> 100	> 100	7.68	–	8.68	0.947	7.23	1230	1880	1570	1.49	5.64	2660	588	263	1680	2060
Oc1ccc2ccccc2c1N=Nc1ccccn1	10.4	> 100	> 100	7.1	43	–	> 100	> 100	> 100	356	2350	2530	7.49	> 86.7	1410	1970	3020	527	3440
CCOC(=O)COc1c(OC)cc(C2C3=C(COC3=O)Oc3cc4c(cc32)OCO4)cc1OC (centres undefined)	27.1	30.7	> 100	> 100	3.14	–	> 100	> 45.1	98.1	–	–	–	–	> 100	–	–	–	–	–
Nc1nc(N)c2nc(-c3ccco3)cnc2n1	> 100	> 100	> 100	> 100	> 100	–	–	> 100	–	–	–	–	–	80	–	–	–	–	–
COc1ccc(C2SCC(=O)N2NC(=O)C(C)Oc2ccccc2Cl)cc1 (centres undefined)	58.1	> 100	> 100	> 100	> 100	–	> 100	77.4	> 100	–	–	–	–	> 100	–	–	–	–	–
COc1cc2cc(C(=O)N3CC(CCl)c4c3cc(N(C)C)c3ccccc43)[nH]c2c(OC)c1OC (centres undefined)	< 0.01	0.0809	10.6	0.0185	0.0261	–	–	> 53.9	5.91	–	–	–	–	0.0252	–	–	–	–	–
CC1(C)N=C(/C=N/O)C(C)(C)N1O	> 100	> 100	> 100	> 100	> 100	> 100	> 100	> 100	–	–	–	–	–	> 100	–	–	–	–	–
Cc1cc(O)c(/C=N/c2nc(-c3cccc([N+](=O)[O-])c3)cs2)c(=O)o1	–	> 100	> 100	> 100	–	–	> 100	> 100	73.5	–	–	–	–	> 100	–	–	–	–	–
CSc1nc(O)c(/C=C2\C=Nc3ccccc32)[nH]1	> 100	90.6	> 100	> 100	–	–	> 100	> 100	> 100	–	–	–	–	> 100	–	–	–	–	–
Cc1ccc(/C=N/NC2=NCCN2)s1	–	> 100	> 100	> 100	> 100	> 100	> 100	> 100	> 100	–	–	–	–	> 100	–	–	–	–	–
O=C(O)c1cc(O)c2c(c1)Cc1cccc(O)c1C2=O	66.8	> 100	95.1	55.2	–	–	> 100	41.3	> 100	–	–	–	–	30.6	–	–	–	–	–
O=C1CC(c2ccc[nH]2)=NN1c1ccccc1	–	–	> 100	> 100	> 100	> 100	–	> 100	> 100	–	–	–	–	> 100	–	–	–	–	–
O[C@H]1[C@H](O)[C@H](O)CN2CCC[C@@H](O)[C@H]12	> 100	> 100	> 100	> 100	> 100	–	> 100	> 100	> 100	–	–	–	–	> 100	–	–	–	–	–
CC(C)NC(=O)OCc1c(COC(=O)NC(C)C)c(-c2ccc[n+](COC(=O)C3CC3)c2)n2c1CCC2	> 100	> 100	> 100	> 100	63.1	–	> 100	> 100	> 100	–	–	–	–	> 100	–	–	–	–	–
CCOC(=O)c1c(C)[nH]c(/C=C2\N=C(c3ccc[nH]3)C=C2OC)c1C	–	1.18	> 42.3	–	–	–	1.3	0.0792	1.48	–	49.7	735	–	–	–	–	32.3	46.9	41
COC(=O)[C@H](Cc1ccccc1)NP(=O)(O)OCC1OC(n2cc(C)c(=O)[nH]c2=O)CC1N=[N+]=[N-] (some centres undefined)	> 100	> 100	> 100	> 100	> 100	> 100	> 100	> 100	–	–	–	–	–	> 100	–	–	–	–	–
CSc1nncc2[nH]cnc12	> 100	–	> 100	> 100	–	> 100	> 100	–	> 100	–	–	–	–	> 100	–	–	–	–	–
O=C(CCc1ccccc1CO)NCCc1ccccc1	> 100	> 100	> 100	> 100	> 100	–	> 100	> 100	> 100	–	–	–	–	> 100	–	–	–	–	–
CCN(CC)CCSc1nc2c(c(=N)n1-c1ccccc1)c(=S)n(-c1ccccc1)c(=S)n2-c1ccccc1	0.936	3.15	40.6	5	–	6.55	–	2.88	5.98	–	–	–	–	5.52	–	–	–	–	–
COc1cc2c(cc1OC)C(Cc1ccccc1CCCl)=NCC2	> 100	> 100	> 100	> 100	> 100	–	> 100	> 100	> 100	–	–	–	–	> 100	–	–	–	–	–
COc1cc(C(=O)Nc2c3ccccc3nc3ccccc23)cc(OC)c1OC	–	> 100	> 100	> 100	> 100	> 100	> 100	> 100	> 100	–	–	–	–	–	–	–	–	–	–
